# Experimental data published in patent US20210285933A1, “HIGH THROUGHPUT DRUG SCREENING OF CANCER STEM CELLS” (UNIVERSITY OF WASHINGTON, priority 2018, published 2021).
# Entries after “also recorded” stand apart in the source; their conditions may differ.
# Assays:
# [1] = test system: AML blasts vs. leukemia stem cells (LSCs); experiment: Drug specificity: group comparison of AUCs, blasts vs. LSCs across patient samples; assay type: cell-based, human; conditions: aggregate viability data of patient samples; pairwise p-value<0.1
# Protocol: (§1) After overnight incubation on matrix protein coated 384 well plates, drugs were added to each well using a CyBio Well Vario liquid handler (Amalytik Jena). The cell populations were analyzed for survival after a 72-hour exposure to 8 customized drug concentrations (within the range of 5 pM to 100 microM) of each drug spanning 4 logs. Post exposure viability was measured using CellTiter Glo luminescent reagent (Promega, Madison, Wis.) per manufacturer protocol, then the plates were analyzed with the Envision Multi-label plate reader (Perkin Elmer, Waltham, Mass.). XLFit software (IDBS, Guildford, Surrey, United Kingdom) was used to analyze the data and generate dose response curves based on standard 4-parameter logistic fit. For each plate, data were normalized to DMSO 100% viability and blank controls.
# (§2) Area under the curve (AUC) was calculated for each dose response curve. For the 4 patient samples, two-sample two-tailed t-tests were used for group comparisons of AUC values to determine drug specificity and efficacy.
# (§3) Drug specificity was defined by group comparisons between AUCs for each drug and cell type across patient samples. […] Group comparisons for categorical variable were completed using Fisher's exact test.
# [2] = test system: leukemia stem cells (LSCs) CD34+CD38low or negCD123+ from AML patient samples; experiment: High throughput functional drug screen (72-hour exposure, CellTiter Glo viability) on FACS sorted LSCs; assay type: cell-based, human; design: AUC Stem Mean: unit not given here; conditions: for mean IC50 of LSC samples compared to predicted plasma concentration: FIG. 9, expected plasma concentration in patients with typical dosing; for LSC drug response in dose response curves: FIG. 1C; for Effectiveness vs. LSCs (AUCstem mean < mitomycin C AUCblast mean, p<0.1): aggregate viability data of patient samples, in vitro 72 h
# Protocol: (§4) Isolation of blasts and FACS isolation of LSCs: CD34+ blasts were enriched to >90% using immunomagnetic beads (QuadroMACS). Fluorescence activated cell sorting was performed in a biosafety cabinet enclosed FACS-Aria II (Becton-Dickinson; San Jose, Calif.) housed in the University of Washington Core Cell Analysis Facility where voltage was standardized and calibration was performed daily. Mononuclear cells were stained with allophycocyanin H7 (APC-H7) conjugated anti-human CD45, allophycocyanin (APC) conjugated anti-human CD34, phycoerythrin-Cy7 (PE-Cy7) conjugated anti-human CD38 and phycoerythrin (PE) conjugated anti-human CD123 (all from BD Biosciences Pharmingen, San Jose, Calif.). Initially a blast gate was applied for forward scatter vs. side scatter, then sequential gates for CD45 vs. side scatter, CD34+ and CD38^low or neg, then CD123+ cells to yield the LSCs. The CD38low population was defined by CD38 above the isotype control and below that of mature precursors. Flow cytometry data analysis was performed using FlowJo software (Tree Star, Inc. Ashland, Oreg.).
# as §1, §2, §3
# [3] = test system: AML blasts (CD45dim, side scatter low) from patient samples; experiment: High throughput functional drug screen (72-hour exposure, CellTiter Glo viability) on AML blasts; assay type: cell-based, human; conditions: for mean IC50 of blast samples compared to predicted plasma concentration: FIG. 9, expected plasma concentration in patients with typical dosing
# Protocol: as §4
# Functional Drug Screen: A CLIA-validated in vitro sensitivity assay was performed that included both FDA approved and investigational drugs. ‘Oncopane11’ comprised of 153 drugs was used for HTS of patient samples and an earlier generation panel of 160 drugs was used for HTS of the NOD/SCID IL2R γc−/− mouse engraftment sample. As detailed above, for the 4 patient samples, using FACS, the blast population (CD45^dim, side scatter^low) was confirmed to be >90% of the viable white blood cell fraction, and the LSC subpopulation (CD34^+CD38^low or negCD123^+) was isolated. For the NOD/SCID IL2R γc−/− mouse engraftment sample, both the pre-engraftment AML blasts (>90% blasts by FACs) and splenic mononuclear cells (91% hCD45+ engrafting subclone as above) were assayed. After overnight incubation on matrix protein coated 384 well plates, drugs were added to each well using a CyBio Well Vario liquid handler (Amalytik Jena). The cell populations were analyzed for survival after a 72-hour exposure to 8 customized drug concentrations (within the range of 5 pM to 100 microM) of each drug spanning 4 logs. Post exposure viability was measured using CellTiter Glo luminescent reagent (Promega, Madison, Wis.) per manufacturer protocol, then the plates were analyzed with the Envision Multi-label plate reader (Perkin Elmer, Waltham, Mass.). XLFit software (IDBS, Guildford, Surrey, United Kingdom) was used to analyze the data and generate dose response curves based on standard 4-parameter logistic fit. For each plate, data were normalized to DMSO 100% viability and blank controls.
# as §2
# Drug specificity was defined by group comparisons between AUCs for each drug and cell type across patient samples. For blast specific drugs AUCstem mean>AUCblast mean and for LSC specific drugs AUC^stem mean<AUC^blast mean (p<0.1). […] This approach was selected to detect differences within the small sample size, while still maintaining statistical stringency and capturing trends observed in the data set. Group comparisons for categorical variable were completed using Fisher's exact test.
# LSCs = conditions: literature; cited from earlier work
# AML = conditions: literature; cited from earlier work
# pediatric AML blasts = conditions: literature; cited from earlier work
Structure (SMILES),Drug specificity (blast specific: AUCstem mean>AUCblast mean; LSC specific: AUCstem mean<AUCblast mean) [1],mean IC50 of LSC samples compared to predicted plasma concentration [2],mean IC50 of blast samples compared to predicted plasma concentration [3],further results
COc1cc([C@@H]2c3cc4c(cc3[C@@H](O[C@@H]3O[C@@H]5CO[C@@H](C)O[C@H]5[C@H](O)[C@H]3O)[C@H]3COC(=O)[C@H]23)OCO4)cc(OC)c1O [Etoposide],blast cell specific; also recorded: blast cell-specific,greater than the predicted plasma concentration,less than predicted plasma concentration,–
Nc1nc(Cl)nc2c1ncn2[C@@H]1O[C@H](CO)[C@@H](O)[C@@H]1F [clofarabine],trended towards blast cell specific; also recorded: trended towards blast cell-specific,greater than the predicted plasma concentration,less than predicted plasma concentration,–
Nc1ccn([C@@H]2O[C@H](CO)[C@@H](O)[C@@H]2O)c(=O)n1 [Cytarabine],blast cell specific; also recorded: blast cell-specific,greater than the predicted plasma concentration,less than predicted plasma concentration,LSC drug response in dose response curves ([2]; patient sample on the left): resistant; LSC drug response in dose response curves ([2]; patient sample on the right): resistant
CC(C)C[C@H](NC(=O)[C@H](CCc1ccccc1)NC(=O)CN1CCOCC1)C(=O)N[C@@H](Cc1ccccc1)C(=O)N[C@@H](CC(C)C)C(=O)[C@@]1(C)CO1 [Carfilzomib],–,–,–,"Effectiveness vs. LSCs (AUCstem mean < mitomycin C AUCblast mean, p<0.1) [2]: not effective; anti-LSC effect in vitro in prior studies (LSCs): reduced LSCs in vitro; clinical effect in AML patients (AML): minimal anti-leukemic effects"
COc1cccc2c1C(=O)c1c(O)c3c(c(O)c1C2=O)C[C@@](O)(C(C)=O)C[C@@H]3O[C@H]1C[C@H](N)[C@H](O)[C@H](C)O1 [daunorubicin],non-specific,opposite pattern,opposite pattern,LSC drug response in dose response curves ([2]; patient sample on the right): resistant
CC(C)C[C@H](NC(=O)CNC(=O)c1cc(Cl)ccc1Cl)B(O)O [ixazomib],–,–,–,anti-LSC effect in vitro in prior studies (LSCs): anti-LSC effect was shown in vitro
CO[C@@]12[C@H](COC(N)=O)C3=C(C(=O)C(C)=C(N)C3=O)N1C[C@@H]1N[C@@H]12 [Mitomycin C],blast cell specific,–,–,"LSC response to mitomycin C in dose response curves ([2]; FIG. 3, both patient samples): resistant; Blast response to mitomycin C in dose response curves ([3]; FIG. 3, both patient samples): sensitive"
CC(=O)[C@]1(O)Cc2c(O)c3c(c(O)c2[C@@H](O[C@H]2C[C@H](N)[C@H](O)[C@H](C)O2)C1)C(=O)c1ccccc1C3=O [Idarubicin],blast cell specific; also recorded: blast cell-specific,greater than the predicted plasma concentration,less than predicted plasma concentration,LSC drug response in dose response curves ([2]; patient sample on the left): resistant
O=C1c2c(O)ccc(O)c2C(=O)c2c(NCCNCCO)ccc(NCCNCCO)c21 [mitoxantrone],trended towards blast cell specific; also recorded: trended towards blast cell-specific,less than predicted plasma concentration,less than predicted plasma concentration,–
Nc1nc(Cl)nc2c1ncn2[C@H]1C[C@H](O)[C@@H](CO)O1 [Cladribine],blast cell specific; also recorded: blast cell-specific,greater than the predicted plasma concentration,less than predicted plasma concentration,–
CO[C@H]1C(=O)[C@]2(C)[C@@H](OC)C[C@H]3OC[C@@]3(OC(C)=O)[C@H]2[C@H](OC(=O)c2ccccc2)[C@]2(O)C[C@H](OC(=O)[C@H](O)[C@@H](NC(=O)OC(C)(C)C)c3ccccc3)C(C)=C1C2(C)C [Cabazitaxel],–,–,–,"Effectiveness vs. LSCs (AUCstem mean < mitomycin C AUCblast mean, p<0.1) [2]: effective; AUC Stem Mean ([2]; mean area under dose response curve across patient samples, 72-hour exposure, 8 concentrations): 0.0031; effect vs. pediatric AML blasts in vitro (pediatric AML blasts): effective"
